One data set addresses T1, PDE7A (Homo sapiens, UniProt Q13946).
T1 construct: purchased BPS Bioscience 60373
Put plainly: In vitro PDE7A inhibitory activity assay (fluorescence polarization PDE7A Assay Kit, BPS Bioscience). It is filed as biochemical. Particulars: for IC50: fluorescence polarization kit. The protocol:
The inhibitory activity of the compounds was determined as half maximal inhibitory concentration IC50 in μM ([Malik et al., 2008]; [Pekkinen et al., 2008]).
All the newly synthesized compounds 4a-h and 5a-h were evaluated for in vitro PDE7A inhibitory activity using a fluorescence polarization PDE7A Assay Kit (Catalog no. 60373; BPS Bioscience) ([Malik et al., 2008]; [Pekkinen et al., 2008]). The assay is based on the binding of fluorescent nucleotide, a monophosphate generated by PDE7A to the binding agent. PDE7A catalyzes the hydrolysis of the phosphodiester bond in dye-labeled cyclic adenosine monophosphate (cAMP). Nanoparticle beads selectively bind the phosphate group in the nucleotide product. This increases the size of the nucleotide relative to unreacted cAMP. Since the degree of polarization of a fluorophore is inversely related to its molecular rotation, dyes attached to the slowly rotating nucleotide-bead complexes will not have time to reorient and therefore will emit highly polarized light. Conversely, dyes attached to the rapidly rotating cyclic monophosphates will obtain random orientations and emit light with low polarization.
The PDE7A inhibitor screening assay kit comes in a convenient 384-well format, including purified PDE7A enzyme, fluorescently labeled PDE7A substrate (cAMP), binding agent, and PDE assay buffer for 384 enzyme reactions. The key to the PDE7A Assay Kit is the specific binding agent. Using this kit, only two simple steps on a microtiter plate are required for PDE7A reactions. First, the fluorescently labeled cAMP is incubated with a sample containing PDE7A for 1 h. Second, a binding agent is added to the reaction mix to produce a change in fluorescent polarization that can then be measured using a fluorescence reader. The microtiter plate reader is capable of excitation at wavelengths ranging from 485 ± 15 nm and detection of emitted light ranging from 528 ± 10 nm. […] The inhibitory activity of the tested compounds was determined as half maximal inhibitory concentration IC50 in μM compared to the two reference standards.
This in vitro testing assay was carried out at the confirmatory diagnostic unit, Vacsera, Egypt, and the results are presented in Table 1 and represented in Figure 2. […] Halogen atoms are lipophilic substituents commonly used in the design of novel biologically active molecules.
For orientation: In fluorescence polarisation assays a small probe gives low polarisation when free and higher when bound to something large.

Another data set has as its system PDE7. Particulars: cited from earlier work.

Entries after “also recorded” stand apart in the source; their conditions may differ. Like-named read-outs stand apart in the source and are kept apart here.

For orientation: IC50 means the concentration that inhibits the measured activity by half. The melting point is the temperature, or range, at which the solid turns liquid.

T1 sequence (Q13946 whole entry): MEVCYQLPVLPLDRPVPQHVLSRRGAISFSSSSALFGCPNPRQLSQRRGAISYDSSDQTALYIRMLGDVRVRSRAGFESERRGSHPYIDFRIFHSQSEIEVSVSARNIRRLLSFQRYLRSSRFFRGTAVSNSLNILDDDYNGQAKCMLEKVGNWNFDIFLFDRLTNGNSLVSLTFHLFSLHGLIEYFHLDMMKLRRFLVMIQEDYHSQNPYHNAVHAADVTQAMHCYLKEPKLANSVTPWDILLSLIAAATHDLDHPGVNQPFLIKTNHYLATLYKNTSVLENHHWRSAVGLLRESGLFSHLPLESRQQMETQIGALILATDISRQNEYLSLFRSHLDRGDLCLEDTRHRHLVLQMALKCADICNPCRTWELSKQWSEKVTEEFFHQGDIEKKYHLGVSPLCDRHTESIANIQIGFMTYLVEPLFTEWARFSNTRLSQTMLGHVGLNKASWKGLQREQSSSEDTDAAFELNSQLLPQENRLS

In the case of `OCc1ccc(-c2nnc3c4cc(Cl)ccc4nc(Cl)n23)o1` [Compound 5e, 5,9-Dichloro-3-(5-hydroxymethyl-2-furyl)-1,2,4-triazolo[4,3-c]quinazoline], the melting point is less than 280 °C. Also, at PDE7A, the “PDE7A inhibitory activity (result in words)” value (“PDE7A inhibitory activity” below) is “among the least effective compounds” and the IC50 turned out to be 1.34 µM.
`Clc1nc(NN=Cc2ccnc3ccccc23)c2ccccc2n1` [Compound 4d, 2-Chloro-4-[2-(4-quinolinylmethylene)hydrazino]quinazoline]: the melting point fell in the range of 205 to 207 °C. The same molecule came in with a half-maximal inhibitory concentration (IC50) against PDE7A of 0.249 µM.
In the same order, the values of `Clc1nc(NN=Cc2c[nH]c3ccc(Br)cc23)c2ccccc2n1` [Compound 4c, 4-[2-(5-bromo-1H-3-indolylmethylene)hydrazino]-2-chloroquinazoline] are 238 to 240 °C and 0.478 µM.
Molecule `Clc1ccc2nc(Cl)nc(NN=Cc3cccnc3)c2c1` [Compound 4f, 2,6-Dichloro-4-[2-(3-pyridylmethylene)hydrazino]quinazoline] returned a melting point of 198 to 200 °C. In addition, on PDE7A, the “PDE7A inhibitory activity” value is “high PDE7 inhibitory potencies” and it took 0.343 µM to reach half-maximal inhibition (IC50).
Turning to `Clc1nc2ccccc2c2nnc(-c3c[nH]c4ccc(Br)cc34)n12` [Compound 5c, 3-(5-Bromo-3-indolyl)-5-chloro-1,2,4-triazolo[4,3-c]quinazoline], the melting point lay within 200 to 202 °C. Also, at PDE7A, the “PDE7A inhibitory activity” value is “good potency; also recorded: good activity” and half-maximal inhibition (IC50) required 0.18 µM.
`Clc1ccc2nc(Cl)nc(NN=Cc3c[nH]c4ccc(Br)cc34)c2c1` [Compound 4g, 4-[2-(5-bromo-1H-3-indolylmethylene)hydrazino]-2,6-dichloroquinazoline] displayed a melting point of less than 280 °C. Besides, on PDE7A, the “PDE7A inhibitory activity” value is reported as “good potency; also recorded: good activity” and the IC50 was found to be 0.15 µM.
The molecule `OCc1ccc(-c2nnc3c4ccccc4nc(Cl)n23)o1` [Compound 5a, 5-Chloro-3-(5-hydroxymethyl-2-furyl)-1,2,4-triazolo[4,3-c]quinazoline] displayed a melting point of more than 280 °C. The molecule further showed an IC50 on PDE7A of 0.251 µM.
The molecule `Clc1ccc2nc(Cl)nc(NN=Cc3ccnc4ccccc34)c2c1` [Compound 4h, 2,6-Dichloro-4-[2-(4-quinolinylmethylene)hydrazino]quinazoline] registered a melting point of less than 280 °C. At PDE7A, the “PDE7A inhibitory activity” value is “very low PDE7 inhibitory effect” and the IC50 was 0.627 µM.
Consider `O=c1[nH]c(=S)[nH]c2cc(F)c(F)cc12` [A], for which, in the data set with PDE7 (ref Elfeky et al., 2020), the IC50 was 70 nM.
In the case of `Cc1ccc([N+](=O)[O-])cc1S(=O)(=O)N(C)C` [BRL50481, reference compound], inhibition against PDE7A was half-maximal at 0.034 µM (IC50).
The molecule `Clc1ccc2nc(Cl)n3c(-c4cccnc4)nnc3c2c1` [Compound 5f, 5,9-Dichloro-3-(3-pyridyl)-1,2,4-triazolo[4,3-c]quinazoline] registered a melting point of 219 to 221 °C. Moreover, at PDE7A, the “PDE7A inhibitory activity” value is “good potency; also recorded: high PDE7 inhibitory potencies; also recorded: highest selective PDE7A inhibitors” and the IC50 worked out at 0.142 µM.
Consider `CC(C)c1nc(SCc2ccc(-c3ccccc3-c3nnn[nH]3)cc2)c2ccccc2n1` [C], for which the IC50 with PDE7 (ref Sánchez et al., 2013) was 770 nM.
Regarding `CC(C)c1nc(SCc2ccc(-c3ccc(C(=O)O)cc3)cc2)c2ccccc2n1` [D], the IC50 with PDE7 (ref Sánchez et al., 2013) is 930 nM.
Take `Clc1ccc2nc(Cl)n3c(-c4ccnc5ccccc45)nnc3c2c1` [Compound 5h, 5,9-Dichloro-3-(4-quinolinyl)-1,2,4-triazolo[4,3-c]quinazoline]: the melting point is less than 280 °C. Further, at PDE7A, the “PDE7A inhibitory activity” value is given as “very low PDE7 inhibitory effect” and the IC50 was 1.8 µM.
`Clc1nc(NN=Cc2cccnc2)c2ccccc2n1` [Compound 4b, 2-Chloro-4-[2-(3-pyridylmethylene)hydrazino]quinazoline]: the melting point was less than 280 °C. Further, on PDE7A, the “PDE7A inhibitory activity” value was “good potency; also recorded: high PDE7 inhibitory potencies; also recorded: highest selective PDE7A inhibitors” and inhibition was half-maximal at 0.114 µM (IC50).
`Cn1c(-c2ccoc2)nc(=O)c2ccccc21` [B]: the IC50 in the data set with PDE7 (ref Elfeky et al., 2020) was 90 nM.
With `Clc1nc2ccccc2c2nnc(-c3ccnc4ccccc34)n12` [Compound 5d, 5-Chloro-3-(4-quinolinyl)-1,2,4-triazolo[4,3-c]quinazoline], the melting point was 220 to 222 °C. For the same molecule, at PDE7A, the “PDE7A inhibitory activity” value is recorded as “very low PDE7 inhibitory effect” and the IC50 was found to be 0.894 µM.
Take `Clc1ccc2nc(Cl)n3c(-c4c[nH]c5ccc(Br)cc45)nnc3c2c1` [Compound 5g, 3-(5-Bromo-3-indolyl)-5,9-dichloro-1,2,4-triazolo[4,3-c]quinazoline]: the melting point is more than 280 °C. At PDE7A, the “PDE7A inhibitory activity” value is “good activity” and inhibition was half-maximal at 0.407 µM (IC50).
In the same order, the values of `Clc1nc2ccccc2c2nnc(-c3cccnc3)n12` [Compound 5b, 5-Chloro-3-(3-pyridyl)-1,2,4-triazolo[4,3-c]quinazoline] are more than 280 °C, “high PDE7 inhibitory potencies” and 0.32 µM.
Turning to `OCc1ccc(C=NNc2nc(Cl)nc3ccccc23)o1` [Compound 4a, 2-Chloro-4-[2-(5-hydroxymethyl-2-furylmethylene)hydrazino]quinazoline], the melting point was more than 280 °C. On PDE7A, the “PDE7A inhibitory activity” value was “among the least effective compounds” and the IC50 is 0.653 µM.
`OCc1ccc(C=NNc2nc(Cl)nc3ccc(Cl)cc23)o1` [Compound 4e, 2,6-Dichloro-4-[2-(5-hydroxymethyl-2-furylmethylene)hydrazino]quinazoline]: the melting point was less than 280 °C. On PDE7A, the “PDE7A inhibitory activity” value was “among the least effective compounds” and 1.97 µM corresponded to half-maximal inhibition (IC50).

(Values after PMC11070508, “Design, synthesis, molecular docking, and molecular dynamic studies of novel quinazoline derivatives as phosphodiesterase 7 inhibitors” (Frontiers in Pharmacology, 2024).)
